# ChEMBL document CHEMBL1135006, “Synthesis and biological evaluation of novel 2-(1H-imidazol-4-yl)cyclopropane carboxylic acids: key intermediates for H3 histamine receptor ligands” (Bioorg Med Chem Lett, 2002)
# Target: Histamine H3 receptor (Rattus norvegicus) (UniProt Q9QYN8)
# Assay: Inhibition of the specific binding of [3H](R)-alpha-methylhistamine ([3H]RMHA) to Histamine H3 receptor in rat brain membranes at 10e-8 M
# Histamine H3 receptor (Rattus norvegicus), sequence (Q9QYN8 whole entry, looked up): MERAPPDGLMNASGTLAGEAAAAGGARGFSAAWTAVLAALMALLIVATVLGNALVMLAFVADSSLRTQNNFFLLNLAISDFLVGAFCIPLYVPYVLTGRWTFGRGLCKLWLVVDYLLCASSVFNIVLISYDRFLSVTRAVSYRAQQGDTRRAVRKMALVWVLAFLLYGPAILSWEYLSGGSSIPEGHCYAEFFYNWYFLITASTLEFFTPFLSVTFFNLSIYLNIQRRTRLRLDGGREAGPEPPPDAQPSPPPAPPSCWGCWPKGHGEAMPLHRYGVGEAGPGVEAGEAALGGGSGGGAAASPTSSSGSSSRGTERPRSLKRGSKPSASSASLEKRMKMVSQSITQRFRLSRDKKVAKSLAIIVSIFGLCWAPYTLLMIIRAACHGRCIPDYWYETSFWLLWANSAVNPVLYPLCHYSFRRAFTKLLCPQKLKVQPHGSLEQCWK
row,SMILES,inhibition [%]
1,OC/C=C/c1ccccc1,33.5
2,C/C=C/CO,10
3,"O=C(O)C1C[C@@H]1c1c[nH]cn1 (single isomer, unassigned)",11.6
4,OC/C=C\c1ccccc1,4.3
5,C/C=C\CO,3.7
